{"source": "patent US20230302022A1", "about": "“PREVENTING OR MITIGATING CHEMOTHERAPY INDUCED ALOPECIA USING VITAMIN D” (priority 2016, published 2023)", "key": {"patients": {"tested_on": "patients", "experiment": "Phase I study: chemotherapy-induced alopecia in patients", "format": "in vivo, human", "details": "patients at all dose levels, weeks 7 and 15 vs baseline", "text": "Photographic assessment will be performed using a Canon Power Shot G12 camera system to ensure standardization and uniformity among all enrolled patients. The following five views will be obtained at each photographic assessment: bilateral sides of head/scalp view, front of head/face view, back of head/scalp view, and top of head/scalp view. Additionally, close-up photographs will be taken at the same times points. […] Photographs will be standardized for lighting, camera angle, and position to the participants head. These assessments will be performed at the following time points: at baseline, weeks 7, 15, 27, and 54. Photographs for patients in each cohort representing baseline, and treatment weeks 7 and 15 will be presented blind to the study principle investigator after at least 3 patients have completed 15 weeks of treatment. Photographs will also be taken at week 27 and week 54 of the study but will be included in the final photographic assessment as secondary information. […]\nSubjective record of hair and scalp. Alopecia will also be subjectively recorded through the patient self-reported diaries. […]\nEach patient underwent PK analysis, adverse event monitoring, patient self-assessment diaries (1-10 scale), and blinded photographic assessments. […] Toxicity was determined on a weekly basis during Cycle 1 (i.e., the first 28 days of topical agent application) and subsequently every four weeks. […]"}, "[1]": {"tested_on": "Long Evans and Sprague Dawley rats", "experiment": "Chemotherapy-induced alopecia (CIA) in the neonatal rat, topical calcitriol formulation", "format": "in vivo", "procedure": "Specifically, Long Evans and Sprague Dawley rats with pups were purchased from Harlan Laboratories, Inc. They were housed and fed according to applicable animal handling rules and regulations. Pups were allowed to acclimate for 48 hours prior to the start of experiments. […] Rats were isolated from their littermates and mother for 6-hour periods of time. Subsequently, the treated area was cleaned with soap and water and pups were returned to their litters. On day 13, rats either received etoposide (1.5 mg/kg daily for 3 days) or cyclophosphamide (CTX) (37.5 mg/kg once) or combination cyclophosphamide (35 mg/kg once) and doxorubicin (2.5 mg/kg daily for 3 days). All chemotherapies were purchased from Sigma and were given intraperitoneally (i.p.) in a total volume of 0.1 mL. Alopecia was recorded 10 days after the last dose of chemotherapy."}, "NCI-ES-0808": {"tested_on": "NCI-ES-0808", "experiment": "Cell growth / viability assay, NCI-ES-0808", "format": "cell-based", "procedure": "The drug treatment period was usually three days. At the end of the three days, the background OD of the 96-well plate was read at 280 nm, before 20 μL of the “Substrate Cell Titer 96 Aqueous One Solution Reagent” (Promega) was added to each well. […] The net OD increase was calculated by subtracting the pre-substrate OD reading. The impact of the drug on the cells was calculated by comparing the OD at different concentrations in relation to the OD of the control wells (without the drug). The results of the Net OD as a function of drug concentration was plotted and used to determine ED50 values."}, "Long Evans rats": {"tested_on": "Long Evans rats", "experiment": "CIA in chloroleukemic Long Evans rats receiving multi-course chemotherapy", "format": "in vivo, rat", "set-up": "protection from CIA: concentration or dose not given beside the values", "details": "for protection from CIA: both cycles"}, "[2]": {"tested_on": "squamous cell carcinoma and human prostate cell carcinoma", "details": "2.5 μg 3 doses daily for 3 days, followed by paclitaxel; cited from earlier work"}, "[3]": {"tested_on": "Sprague-Dawley or Long Evans rats", "experiment": "CIA in 5-day-old Sprague-Dawley or Long Evans rats, calcitriol 1, 2 or 3 μg/mL", "format": "in vivo, rat"}, "[4]": {"tested_on": "Long Evans and Sprague Dawley rats", "experiment": "Chemotherapy-induced alopecia (CIA) in the neonatal rat, topical calcitriol formulation", "format": "in vivo", "remark": "listed apart in the source"}, "[5]": {"details": "Long Evans rats, 0.2 μg total dose"}}, "data": [{"smiles": "C=C1/C(=C\\C=C2/CCC[C@]3(C)[C@@H]([C@H](C)CCCC(C)(C)O)CC[C@@H]23)C[C@@H](O)C[C@@H]1O", "note": "[Calcitriol, (5Z,7E)-9,10-secocholesta-5,7.10(19Hriene-1 a,33.25-triol]", "values": [{"measurement": "chemotherapy induced alopecia", "setting": "patients", "value": "diminished chemotherapy induced alopecia"}, {"measurement": "protection from etoposide-induced alopecia", "setting": "[1]; 0.1 μg of calcitriol topically for 6 hours, daily for 6 days", "value": "partial localized protection"}, {"measurement": "protection from cyclophosphamide-induced alopecia", "setting": "[1]; 0.3 μg calcitriol topically", "value": "full body protection"}, {"measurement": "protection from etoposide-induced alopecia", "setting": "[1]; 0.3 μg calcitriol topically", "value": "total body protection"}, {"measurement": "protection from CTX-doxorubicin combination chemotherapy-induced alopecia", "setting": "[1]; [5]", "value": "protects"}, {"measurement": "protection from CTX-induced alopecia in rats injected with MIAC51", "setting": "[1]; [5]", "value": "protects"}, {"measurement": "protection from cyclophosphamide (CTX)-induced alopecia", "setting": "[1]; [5]", "value": "protects"}, {"measurement": "protection from CIA in rats receiving etoposide", "setting": "[1]; Sprague Dawley rats, topical formulation, two doses", "value": "protects from chemotherapy-induced alopecia (CIA) in a dose-dependent manner"}, {"measurement": "protection against CIA in neonatal rat", "setting": "[1]; about 0.2 μg (100 μL of 2 μg/mL topical solution)", "value": "protective"}, {"measurement": "daily application prior to commencement of chemotherapy required to see any protective effect", "setting": "[1]; rat model", "value": "at least four days"}, {"measurement": "protection with 5 days of application prior to chemotherapy", "setting": "[1]; rat model", "value": "moderate protection"}, {"measurement": "effect of calcitriol on cell growth", "setting": "NCI-ES-0808", "value": "no significant growth promoting or growth inhibiting effects"}, {"measurement": "effect of calcitriol on the cytotoxic effect of Doxorubicin", "setting": "NCI-ES-0808", "value": "did not appear to appreciably alter"}, {"measurement": "ALOPECIA 0 (number of rats)", "setting": "Long Evans rats; ADM, Paclitaxel and Etoposide, after First Round", "value": 40}, {"measurement": "ALOPECIA 0 (number of rats)", "setting": "Long Evans rats; ADM, Paclitaxel and Etoposide, after Second Round", "value": 32}, {"measurement": "ALOPECIA 0 (number of rats)", "setting": "Long Evans rats; CTX and Doxorubicin (ADM), after First Round", "value": 40}, {"measurement": "ALOPECIA 0 (number of rats)", "setting": "Long Evans rats; CTX and Doxorubicin (ADM), after Second Round", "value": 20}, {"measurement": "ALOPECIA 0 (number of rats)", "setting": "Long Evans rats; CTX, ADM and Cytarabine (ARA-C), after First Round", "value": 40}, {"measurement": "ALOPECIA 0 (number of rats)", "setting": "Long Evans rats; CTX, ADM and Cytarabine (ARA-C), after Second Round", "value": 31}, {"measurement": "ALOPECIA 0 (number of rats)", "setting": "Long Evans rats; CTX, Paclitaxel and Etoposide, after First Round", "value": 40}, {"measurement": "ALOPECIA 0 (number of rats)", "setting": "Long Evans rats; CTX, Paclitaxel and Etoposide, after Second Round", "value": 33}, {"measurement": "ALOPECIA 0 (number of rats)", "setting": "Long Evans rats; Cyclophosphamide (CTX), after First Round of Chemotherapy", "value": 40}, {"measurement": "ALOPECIA 0 (number of rats)", "setting": "Long Evans rats; Cyclophosphamide (CTX), after Second Round of Chemotherapy", "value": 10}, {"measurement": "protection from CIA", "setting": "Long Evans rats; cyclophosphamide and doxorubicin group", "value": 100, "unit": "%"}, {"measurement": "extent of alopecia (grade), all rats", "setting": "Long Evans rats; cyclophosphamide and doxorubicin regimen, after the first round", "value": "did not exhibit any signs of alopecia"}, {"measurement": "protection from CIA", "setting": "Long Evans rats; cyclophosphamide group", "value": 100, "unit": "%"}, {"measurement": "extent of alopecia (grade), all rats", "setting": "Long Evans rats; cyclophosphamide regimen, after the first round of chemotherapy", "value": "did not exhibit any signs of alopecia"}, {"measurement": "protection from CIA", "setting": "Long Evans rats; cyclophosphamide, doxorubicin and cytarabine group", "value": 100, "unit": "%"}, {"measurement": "extent of alopecia (grade), all rats", "setting": "Long Evans rats; cyclophosphamide, doxorubicin and cytarabine regimen, after the first round", "value": "did not exhibit any signs of alopecia"}, {"measurement": "protection from CIA", "setting": "Long Evans rats; cyclophosphamide, paclitaxel and etoposide group", "value": 100, "unit": "%"}, {"measurement": "extent of alopecia (grade), all rats", "setting": "Long Evans rats; cyclophosphamide, paclitaxel and etoposide regimen, after the first round", "value": "did not exhibit any signs of alopecia"}, {"measurement": "protection from CIA", "setting": "Long Evans rats; doxorubicin, paclitaxel and etoposide group", "value": 100, "unit": "%"}, {"measurement": "extent of alopecia (grade), all rats", "setting": "Long Evans rats; doxorubicin, paclitaxel and etoposide regimen, after the first round", "value": "did not exhibit any signs of alopecia"}, {"measurement": "tumor response", "setting": "[2]", "value": "significant tumor regression"}, {"measurement": "location of hair growth", "setting": "[3]; 1 μg/mL", "value": "limited to the treated area"}, {"measurement": "location of hair growth", "setting": "[3]; 3 μg/mL", "value": "also observed on the dorsal region"}, {"measurement": "protection from CIA", "setting": "[3]; 6-hour exposure", "value": "complete protection"}, {"measurement": "protection from CIA", "setting": "[3]; 1.5 hour exposure", "value": "no protection"}, {"measurement": "protection from cytarabine-induced alopecia", "setting": "[4]", "value": "protective effect"}]}]}
